# Measured values reported in PubChem BioAssay AID1963870 (Molecular Pharmacology Branch, DTP, NCI, 2024).
# Test system: 292921-168-R-J2-PDC KRAS tumor spheroid viability
# Assay: Anticancer human tumor 292921-168-R-J2-PDC patient-derived pancreatic carcinoma cell line growth inhibition [KRAS2]
# Settings: spheroids with HUVEC and MSC; for IC50: curve of first compound; for viability, T/C: stronger effect = lower value
# Procedure, shortened: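 KRAS-mutant tumor cells were grown as spheroids with HUVEC endothelial cells and human MSCs as stroma. Targeted agents were tested alone and with KRAS pathway inhibitors. Doses started at or near clinical Cmax, or 10 microM, descending half-log.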
# [1] = second compound 0.1 µM, first compound 0.01 µM
# [2] = second compound 0.1 µM, first compound 0.0316 µM
# [3] = second compound 0.1 µM, first compound 0.1 µM
# [4] = second compound 0.1 µM, first compound 0.316 µM
# [5] = second compound 0.1 µM, first compound 1 µM
# [6] = second compound 0.1 µM, first compound 3.16 µM
# [7] = second compound 0.316 µM, first compound 0.01 µM
# [8] = second compound 0.316 µM, first compound 0.0316 µM
# [9] = second compound 0.316 µM, first compound 0.1 µM
# [10] = second compound 0.316 µM, first compound 0.316 µM
# [11] = second compound 0.316 µM, first compound 1 µM
# [12] = second compound 0.316 µM, first compound 3.16 µM
# [13] = second compound 1 µM, first compound 0.01 µM
# [14] = second compound 1 µM, first compound 0.0316 µM
# [15] = second compound 1 µM, first compound 0.1 µM
# [16] = second compound 1 µM, first compound 0.316 µM
# [17] = second compound 1 µM, first compound 1 µM
# [18] = second compound 1 µM, first compound 3.16 µM
# [19] = second compound 3.16 µM, first compound 0.01 µM
# [20] = second compound 3.16 µM, first compound 0.0316 µM
# [21] = second compound 3.16 µM, first compound 0.1 µM
# [22] = second compound 3.16 µM, first compound 0.316 µM
# [23] = second compound 3.16 µM, first compound 1 µM
# [24] = second compound 3.16 µM, first compound 3.16 µM
# [25] = second compound 10 µM, first compound 0.01 µM
# [26] = second compound 10 µM, first compound 0.0316 µM
# [27] = second compound 10 µM, first compound 0.1 µM
# [28] = second compound 10 µM, first compound 0.316 µM
# [29] = second compound 10 µM, first compound 1 µM
# [30] = second compound 10 µM, first compound 3.16 µM
# 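Also: drug exposure lasted seven days after spheroids formed for three days.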
# 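For viability, T/C in this document: percent of DMSO vehicle control viability which is 100%.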
SMILES,IC50 (second compound 0.1 µM) [nM],IC50 (second compound 0.316 µM) [nM],IC50 (second compound 1 µM) [nM],IC50 (second compound 3.16 µM) [nM],IC50 (second compound 10 µM) [nM],"viability, T/C [1] [%]","viability, T/C [2] [%]","viability, T/C [3] [%]","viability, T/C [7] [%]","viability, T/C [8] [%]","viability, T/C [9] [%]","viability, T/C [13] [%]","viability, T/C [14] [%]","viability, T/C [15] [%]","viability, T/C [19] [%]","viability, T/C [20] [%]","viability, T/C [21] [%]","viability, T/C [25] [%]","viability, T/C [26] [%]","viability, T/C [27] [%]",also measured
CC(=O)OC12COC1CC(O)C1(C)C(=O)C(O)C3=C(C)C(OC(=O)C(O)C(NC(=O)OC(C)(C)C)c4ccccc4)CC(O)(C(OC(=O)c4ccccc4)C21)C3(C)C (stereo not given) + CC1OCC2(CCN(c3cnc(Sc4ccnc(N)c4Cl)c(N)n3)CC2)C1N,< 10,< 10,< 10,< 10,< 10,14.3,14.6,12.2,14.6,11.3,10.6,16.9,17.1,13.4,13.1,11.6,10.9,13.7,11.8,11.8,"viability, T/C [4]: 12.4%; viability, T/C [5]: 13.6%; viability, T/C [6]: 16.8%; viability, T/C [10]: 10.7%; viability, T/C [11]: 12.2%; viability, T/C [12]: 13.9%; viability, T/C [16]: 13.9%; viability, T/C [17]: 14.2%; viability, T/C [18]: 22.1%; viability, T/C [22]: 10.4%; viability, T/C [23]: 13.2%; viability, T/C [24]: 13.8%; viability, T/C [28]: 11%; viability, T/C [29]: 13.4%; viability, T/C [30]: 13.7%"
CC(C)n1nc(-c2ccc3oc(N)nc3c2)c2c(N)ncnc21 + CNCc1ccccc1-c1csc(C(C)Nc2nc(C)nc3cc(OC)c(OC)cc23)c1,3.06,2.08,0.991,< 0.316,< 0.316,36.2,25.3,23.7,33.5,24.5,21.5,25.7,22.7,19,0.17,0.67,0.43,0.09,0.85,0.31,"viability, T/C (second compound 0.1 µM, first compound 0.000316 µM): 76.3%; viability, T/C (second compound 0.1 µM, first compound 0.001 µM): 63.9%; viability, T/C (second compound 0.1 µM, first compound 0.00316 µM): 50.2%; viability, T/C (second compound 0.316 µM, first compound 0.000316 µM): 79%; viability, T/C (second compound 0.316 µM, first compound 0.001 µM): 60.7%; viability, T/C (second compound 0.316 µM, first compound 0.00316 µM): 43.3%; viability, T/C (second compound 1 µM, first compound 0.000316 µM): 74.4%; viability, T/C (second compound 1 µM, first compound 0.001 µM): 50%; viability, T/C (second compound 1 µM, first compound 0.00316 µM): 33.6%; viability, T/C (second compound 3.16 µM, first compound 0.000316 µM): 1.37%; viability, T/C (second compound 3.16 µM, first compound 0.001 µM): 0.62%; viability, T/C (second compound 3.16 µM, first compound 0.00316 µM): 0.91%; viability, T/C (second compound 10 µM, first compound 0.000316 µM): 0.08%; viability, T/C (second compound 10 µM, first compound 0.001 µM): 0.56%; viability, T/C (second compound 10 µM, first compound 0.00316 µM): 0.08%"
CC(=O)OC12COC1CC(O)C1(C)C(=O)C(O)C3=C(C)C(OC(=O)C(O)C(NC(=O)OC(C)(C)C)c4ccccc4)CC(O)(C(OC(=O)c4ccccc4)C21)C3(C)C (stereo not given) + CNCc1ccccc1-c1csc(C(C)Nc2nc(C)nc3cc(OC)c(OC)cc23)c1,< 10,< 10,< 10,< 10,< 10,13.9,15.9,13.8,15.8,14.4,13,16.5,15,11.5,0.1,16.1,0.07,0.14,0.09,0.06,"viability, T/C [4]: 14.6%; viability, T/C [5]: 17.2%; viability, T/C [6]: 18.1%; viability, T/C [10]: 13%; viability, T/C [11]: 15.7%; viability, T/C [12]: 17.5%; viability, T/C [16]: 12.3%; viability, T/C [17]: 17.4%; viability, T/C [18]: 22.8%; viability, T/C [22]: 0.03%; viability, T/C [23]: 0.08%; viability, T/C [24]: 19.4%; viability, T/C [28]: 0.04%; viability, T/C [29]: 0.08%; viability, T/C [30]: 0.17%"
